The values below come from patent US20140235613A1, “SUBSTITUTED DIARYL AZETIDINE DERIVATIVES AS SPHINGOSINE RECEPTOR MODULATORS” (Allergan, Inc., priority 2013, published 2014).

The assay concerns the target T1, human S1P1 receptor (Homo sapiens, UniProt P21453).
T1 construct: expressed in transfected cells; membranes used
The assay is described as follows: GTP γ35S binding assay for S1P1 activity. The format is biochemical. Conditions: Activity potency: S1P1 receptor from GTP γ35S; membranes; test concentration range 0.08 to 5,000 nM. The protocol: Compounds were tested for S1P1 activity using the GTP γ^35S binding assay. These compounds may be assessed for their ability to activate or block activation of the human S1P1 receptor in cells stably expressing the S1P1 receptor.
[…] binding was measured in the medium containing (mM) HEPES 25, pH 7.4, MgCl2 10, NaCl 100, dithitothreitol 0.5, digitonin 0.003%, 0.2 nM GTP γ^35S, and 5 μg membrane protein in a volume of 150 μl. Test compounds were included in the concentration range from 0.08 to 5,000 nM unless indicated otherwise. Membranes were incubated with 100 μM 5′-adenylylimmidodiphosphate for 30 min, and subsequently with 10 μM GDP for 10 min on ice.
Drug solutions and membrane were mixed, and then reactions were initiated by adding GTP γ^35S and continued for 30 min at 25° C. Reaction mixtures were filtered over Whatman GF/B filters under vacuum, and washed three times with 3 mL of ice-cold buffer (HEPES 25, pH7.4, MgCl2 10 and NaCl 100). Filters were dried and mixed with scintillant, and counted for ^35S activity using a β-counter. Agonist-induced GTP γ^35S binding was obtained by subtracting that in the absence of agonist. Binding data were analyzed using a non-linear regression method. In case of antagonist assay, the reaction mixture contained 10 nM S1P in the presence of test antagonist at concentrations ranging from 0.08 to 5000 nM.

The structures appear in SMILES notation.

T1 sequence (P21453 whole entry): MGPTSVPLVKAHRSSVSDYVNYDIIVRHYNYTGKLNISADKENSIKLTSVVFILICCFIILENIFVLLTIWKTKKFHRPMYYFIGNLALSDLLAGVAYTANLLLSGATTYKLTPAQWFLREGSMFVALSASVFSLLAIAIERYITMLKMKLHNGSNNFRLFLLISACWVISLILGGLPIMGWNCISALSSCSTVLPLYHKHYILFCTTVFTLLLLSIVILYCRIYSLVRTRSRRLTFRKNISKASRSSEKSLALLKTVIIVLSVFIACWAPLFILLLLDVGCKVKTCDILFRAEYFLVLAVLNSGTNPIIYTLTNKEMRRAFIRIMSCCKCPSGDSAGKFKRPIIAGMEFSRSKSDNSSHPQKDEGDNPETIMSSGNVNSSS

On to `O=C(O)C1CN(Cc2ccc(CC/N=c3\scc(-c4ccccc4)n3-c3ccccc3)cc2)C1` [Compound 1, 1-[4-(2-{[(2Z)-3,4-diphenyl-1,3-thiazol-2(3H)-ylidene]amino}ethyl)benzyl]azetidine-3-carboxylic acid], for which the EC50 (in general, the concentration at which the effect is half-maximal) amounted to 297 nM. In other words, the sub-micromolar range.

With `O=C(O)C1CN(Cc2ccc(CCSc3ncc(-c4ccccc4)n3-c3ccccc3)cc2)C1` [Compound 2, 1-(4-{2-[(1,5-diphenyl-1H-imidazol-2-yl)thio]ethyl}benzyl)azetidine-3-carboxylic acid], the midpoint of the response, the EC50, lay at 5600 nM.
